Experimental data published in patent publication US20260226086A1, “COMPOUNDS AND COMPOSITIONS AS STAT3 DEGRADERS AND USES THEREOF” (REGENTS OF THE UNIVERSITY OF MICHIGAN, priority 2023, published 2026).

How the values were obtained:
Assay type in all cases: cell-based
[1] = system: SUP-M2 cells; assay: CellTiter-Glo 2.0 cell viability assay, SUP-M2; settings: SUP-M2, 96 h, 4 days
Method: (§1) For example, cell viability may be determined by CellTiter-Glo 2.0 Cell Viability Assay. In a typical procedure, cells seeded at certain amounts of cells (e.g., 1000 cells) per well are incubated with serially diluted compounds for certain period (e.g., 4 days) under certain conditions (e.g., at 37° C. with 5% CO2). At the end of treatment, CellTiter-Glo 2.0 is added to the wells and luminescence is acquired on TECAN SPARK plate reader. Untreated cells are used as control, Data points are fit with an equation (e.g., a four-parameter equation) to generate a concentration-response curve. IC50 values are calculated using a nonlinear regression analysis of the mean±SD from triplicate.
(§2) SU-DHL-1 and SUP-M2 cell viability was determined by CellTiter-Glo 2.0 Cell Viability Assay (Promega). SU-DHL-1 cell line was purchased from ATCC (Manassas, VA) and SUP-M2 (ACC-509) was purchased from DSMZ (Germany). RPMI 1640 medium and fetal bovine serum (FBS) were purchased from Gibco/Thermo Fisher Scientific. In a typical procedure, cells seeded at 1000 cells per well in 384-well white plates (Corning) were incubated with serially diluted compounds for 4 days at 37° C. with 5% C02. At the end of treatment, CellTiter-Glo 2.0 was added to the wells and luminescence was acquired on TECAN SPARK plate reader. Untreated cells were used as control. Data points were fit with a four-parameter equation to generate a concentration-response curve. IC50 values were calculated using a nonlinear regression analysis of the mean±SD from triplicate.

[2] = system: SU-DHL-1 cells; assay: CellTiter-Glo 2.0 cell viability assay, SU-DHL-1; settings: Homo sapiens, 96 h, 4 days
Method: as §1, §2

[3] = biological target: T1, STAT3 (Homo sapiens, UniProt P40763); assay: HiBiT assay, STAT3 degradation in STAT3-HiBiT KI HeLa cells; settings: 24 h; for DC50: read-out: STAT3 Degradation (HeLa 24 h HiBit) DC50
T1 construct: This cell line is a clone created by using CRISPR-Cas9 to fuse HiBiT to the 3′ end of STAT3 in HeLa cells; host or cells: STAT3-HiBiT KI HeLa cell line (CRISPR-Cas9 knock-in clone)
Method: STAT3 degradation may be determined by HiBiT assay. STAT3-HiBiT KI HeLa cell line, which is a clone created by using CRTISPR-Cas9 to fuse HiBiT to the 3′ end of STAT3 in HeLa cells, may be used for this assay. In a typical procedure, cells seeded at certain amounts of cells (e.g., 20000 cells) per well are incubated with serially diluted compounds for certain period of time (e.g., 24 hours) under certain conditions (e.g., at 37° C. with 5% CO2). At the end of treatment, Nano-Glo HiBiT Lytic Detection reagents is added to the wells and luminescence is acquired on TECAN SPARK plate reader. Untreated cells are used as control. Data points are fit with a four-parameter equation to generate a concentration-response curve. IC50 values are calculated using a nonlinear regression analysis of the mean±SD from triplicate.
STAT3-HiBiT KI HeLa cell line was purchased from Promega. This cell line is a clone created by using CRISPR-Cas9 to fuse HiBiT to the 3′ end of STAT3 in HeLa cells. DMEM medium and FBS were purchased from Gibco/Thermo Fisher Scientific. STAT3 degradation was determined based on quantification of luminescent signal using Nano-Glo HiBiT Lytic Detection System. In a typical procedure, cells seeded at 20000 cells per well in 96-well white plates (Corning) were incubated with serially diluted compounds for 24 hours at 37° C. with 5% CO2. At the end of treatment, Nano-Glo HiBiT Lytic Detection reagents was added to the wells and luminescence was acquired on TECAN SPARK plate reader. Untreated cells were used as control. Data points were fit with a four-parameter equation to generate a concentration-response curve. IC50 values were calculated using a nonlinear regression analysis of the mean±SD from triplicate.

T1 sequence (P40763 whole entry): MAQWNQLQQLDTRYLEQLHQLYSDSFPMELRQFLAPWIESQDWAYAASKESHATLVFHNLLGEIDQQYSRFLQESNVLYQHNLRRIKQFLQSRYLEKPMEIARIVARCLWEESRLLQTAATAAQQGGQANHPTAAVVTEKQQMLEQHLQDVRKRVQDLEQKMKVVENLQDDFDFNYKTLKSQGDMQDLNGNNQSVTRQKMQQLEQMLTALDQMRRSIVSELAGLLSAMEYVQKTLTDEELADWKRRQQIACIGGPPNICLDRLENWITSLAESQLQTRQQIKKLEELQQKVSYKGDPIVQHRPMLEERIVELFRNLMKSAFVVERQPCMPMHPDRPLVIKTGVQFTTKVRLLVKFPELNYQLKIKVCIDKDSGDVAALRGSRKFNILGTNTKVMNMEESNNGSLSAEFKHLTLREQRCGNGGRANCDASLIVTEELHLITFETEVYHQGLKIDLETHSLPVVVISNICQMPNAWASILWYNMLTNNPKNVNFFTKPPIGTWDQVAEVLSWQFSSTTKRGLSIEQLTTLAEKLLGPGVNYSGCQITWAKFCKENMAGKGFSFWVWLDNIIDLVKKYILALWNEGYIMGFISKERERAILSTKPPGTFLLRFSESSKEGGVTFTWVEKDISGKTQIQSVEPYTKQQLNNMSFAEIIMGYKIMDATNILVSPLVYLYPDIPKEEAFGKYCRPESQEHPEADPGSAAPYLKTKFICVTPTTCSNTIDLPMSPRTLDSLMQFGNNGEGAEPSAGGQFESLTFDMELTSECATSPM

| Compound | IC50 [1] | IC50 [2] | Dmax at 1 µM [3] | DC50 [3] |
| --- | --- | --- | --- | --- |
| CC(=O)N1CC[C@H]2CC[C@@H](C(=O)N[C@@H](CCC(N)=O)COc3cccc(CCCc4cn(C[C@H](NC(=O)[C@@H]5C[C@@H](O)CN5C(=O)[C@@H](n5cc(C6CC6)nn5)C(C)(C)C)c5ccc(-c6scnc6C)cc5)nn4)c3Cl)N2C(=O)[C@@H](NC(=O)c2cc3cc(C(=O)P(=O)(O)O)ccc3[nH]2)C1 [Compound 6, (2-(((5S,8S,10aR)-3-acetyl-8-(((S)-5-amino-1-(2-chloro-3-(3-(1-((R)-2-((2S,4R)-1-((S)-2-(4-cyclopropyl-1H-1,2,3-triazol-1-yl)-3,3-dimethylbutanoyl)-4-hydroxypyrrolidine-2-carboxamido)-2-(4-(4-methylthiazol-5-yl)phenyl)ethyl)-1H-1,2,3-triazol-4-yl)propyl)phenoxy)-5-oxopentan-2-yl)carbamoyl)-6-oxodecahydropyrrolo[1,2-a][1,5]diazocin-5-yl)carbamoyl)-1H-indole-5-carbonyl)phosphonic acid] | 10 to 100 nM | 10 to 100 nM | > 80% | < 10 nM |
| CC(=O)N1CC[C@H]2CC[C@@H](C(=O)N[C@@H](CCC(N)=O)COc3cccc(CCCCNC(=O)C[C@H](NC(=O)[C@@H]4C[C@@H](O)CN4C(=O)[C@@H](n4cc(C5CC5)nn4)C(C)(C)C)c4ccc(-c5scnc5C)cc4)c3Cl)N2C(=O)[C@@H](NC(=O)c2cc3cc(C(=O)P(=O)(O)O)ccc3[nH]2)C1 [Compound 7, (2-(((5S,8S,10aR)-3-acetyl-8-(((S)-5-amino-1-(2-chloro-3-(4-((S)-3-((2S,4R)-1-((S)-2-(4-cyclopropyl-1H-1,2,3-triazol-1-yl)-3,3-dimethylbutanoyl)-4-hydroxypyrrolidine-2-carboxamido)-3-(4-(4-methylthiazol-5-yl)phenyl)propanamido)butyl)phenoxy)-5-oxopentan-2-yl)carbamoyl)-6-oxodecahydropyrrolo[1,2-a][1,5]diazocin-5-yl)carbamoyl)-1H-indole-5-carbonyl)phosphonic acid] | < 10 nM | 10 to 100 nM | > 80% | < 10 nM |
| Cc1ncsc1-c1ccc([C@H](C)NC(=O)[C@@H]2C[C@@H](O)CN2C(=O)[C@@H](n2cc(CCC(=O)N3CC[C@H]4CC[C@@H](C(=O)N[C@@H](CCC(N)=O)C(=O)NCc5cccc(Cl)c5)N4C(=O)[C@@H](NC(=O)c4cc5cc(C(=O)P(=O)(O)O)ccc5[nH]4)C3)nn2)C(C)(C)C)cc1 [Compound 8, (2-(((5S,8S,10aR)-8-(((S)-5-amino-1-((3-chlorobenzyl)amino)-1,5-dioxopentan-2-yl)carbamoyl)-3-(3-(1-((S)-1-((2S,4R)-4-hydroxy-2-(((S)-1-(4-(4-methylthiazol-5-yl)phenyl)ethyl)carbamoyl)pyrrolidin-1-yl)-3,3-dimethyl-1-oxobutan-2-yl)-1H-1,2,3-triazol-4-yl)propanoyl)-6-oxodecahydropyrrolo[1,2-a][1,5]diazocin-5-yl)carbamoyl)-1H-indole-5-carbonyl)phosphonic acid] | 10 to 100 nM | 100 to 1000 nM | > 80% | 100 to 1000 nM |
| Cc1ncsc1-c1ccc([C@H](C)NC(=O)[C@@H]2C[C@@H](O)CN2C(=O)[C@@H](n2cc(CCCC(=O)N3CC[C@H]4CC[C@@H](C(=O)N[C@@H](CCC(N)=O)C(=O)NCc5cccc(Cl)c5)N4C(=O)[C@@H](NC(=O)c4cc5cc(C(=O)P(=O)(O)O)ccc5[nH]4)C3)nn2)C(C)(C)C)cc1 [Compound 9, (2-(((5S,8S,10aR)-8-(((S)-5-amino-1-((3-chlorobenzyl)amino)-1,5-dioxopentan-2-yl)carbamoyl)-3-(4-(1-((S)-1-((2S,4R)-4-hydroxy-2-(((S)-1-(4-(4-methylthiazol-5-yl)phenyl)ethyl)carbamoyl)pyrrolidin-1-yl)-3,3-dimethyl-1-oxobutan-2-yl)-1H-1,2,3-triazol-4-yl)butanoyl)-6-oxodecahydropyrrolo[1,2-a][1,5]diazocin-5-yl)carbamoyl)-1H-indole-5-carbonyl)phosphonic acid] | 10 to 100 nM | 10 to 100 nM | > 80% | 10 to 100 nM |
| Cc1ncsc1-c1ccc([C@H](C)NC(=O)[C@@H]2C[C@@H](O)CN2C(=O)[C@@H](n2cc(CCCCC(=O)N3CC[C@H]4CC[C@@H](C(=O)N[C@@H](CCC(N)=O)C(=O)NCc5cccc(Cl)c5)N4C(=O)[C@@H](NC(=O)c4cc5cc(C(=O)P(=O)(O)O)ccc5[nH]4)C3)nn2)C(C)(C)C)cc1 [Compound 10, (2-(((5S,8S,10aR)-8-(((S)-5-amino-1-((3-chlorobenzyl)amino)-1,5-dioxopentan-2-yl)carbamoyl)-3-(5-(1-((S)-1-((2S,4R)-4-hydroxy-2-(((S)-1-(4-(4-methylthiazol-5-yl)phenyl)ethyl)carbamoyl)pyrrolidin-1-yl)-3,3-dimethyl-1-oxobutan-2-yl)-1H-1,2,3-triazol-4-yl)pentanoyl)-6-oxodecahydropyrrolo[1,2-a][1,5]diazocin-5-yl)carbamoyl)-1H-indole-5-carbonyl)phosphonic acid] | 10 to 100 nM | 10 to 100 nM | > 80% | 10 to 100 nM |
| CCS(=O)(=O)c1ccc(CNC(=O)[C@H](CCC(N)=O)NC(=O)[C@@H]2CC[C@@H]3CCN(C(=O)CCCCc4cn([C@H](C(=O)N5C[C@H](O)C[C@H]5C(=O)N[C@@H](C)c5ccc(-c6scnc6C)cc5)C(C)(C)C)nn4)C[C@H](NC(=O)c4cc5cc(C(=O)P(=O)(O)O)ccc5[nH]4)C(=O)N32)cc1 [Compound 11, (2-(((5S,8S,10aR)-8-(((S)-5-amino-1-((4-(ethylsulfonyl)benzyl)amino)-1,5-dioxopentan-2-yl)carbamoyl)-3-(5-(1-((S)-1-((2S,4R)-4-hydroxy-2-(((S)-1-(4-(4-methylthiazol-5-yl)phenyl)ethyl)carbamoyl)pyrrolidin-1-yl)-3,3-dimethyl-1-oxobutan-2-yl)-1H-1,2,3-triazol-4-yl)pentanoyl)-6-oxodecahydropyrrolo[1,2-a][1,5]diazocin-5-yl)carbamoyl)-1H-indole-5-carbonyl)phosphonic acid] | < 10 nM | 10 to 100 nM | > 80% | < 10 nM |
| Cc1ncsc1-c1ccc([C@H](C)NC(=O)[C@@H]2C[C@@H](O)CN2C(=O)[C@@H](n2cc(CCCCC(=O)N3CC[C@H]4CC[C@@H](C(=O)N[C@@H](CCC(N)=O)COc5cccc(Cl)c5)N4C(=O)[C@@H](NC(=O)c4cc5cc(C(=O)P(=O)(O)O)ccc5[nH]4)C3)nn2)C(C)(C)C)cc1 [Compound 12, (2-(((5S,8S,10aR)-8-(((S)-5-amino-1-(3-chlorophenoxy)-5-oxopentan-2-yl)carbamoyl)-3-(5-(1-((S)-1-((2S,4R)-4-hydroxy-2-(((S)-1-(4-(4-methylthiazol-5-yl)phenyl)ethyl)carbamoyl)pyrrolidin-1-yl)-3,3-dimethyl-1-oxobutan-2-yl)-1H-1,2,3-triazol-4-yl)pentanoyl)-6-oxodecahydropyrrolo[1,2-a][1,5]diazocin-5-yl)carbamoyl)-1H-indole-5-carbonyl)phosphonic acid] | 10 to 100 nM | 100 to 1000 nM | > 80% | 10 to 100 nM |
